Results taken from patent US8173788B2, “Peptide having ability to activate cancer-related gene” (priority 2005, dated 2012).

Test system: human normal peripheral blood monocyte
Test: Influence of the artificially synthesized peptide on normal cell genes: coculture 7 hr, DNA chip system (Clontech), about 55000 human genes (Table 4)
Format: cell-based
Settings: Suppressed Gene, Immune System Gene
Method: (a) The peptide obtained in Example 3 was added to a human normal peripheral blood monocyte culture system (10 to 100 μg peptide/1×10^6 to 1×10^7 monocytes), and they were cocultured for 7 hr. Then, mRNA was extracted from the monocytes and was applied to analysis for up-regulation and down-regulation in respect to about 55000 human genes by using DNA chip system (Clontech).

[1] = Gene No. 12812, ovarian carcinoma immunoreactive antigen (OCIA)
[2] = Gene No. 14949, programmed cell death 10 (PDCD10), transcript variant 1
[3] = Gene No. 15907, intercellular adhesion molecule 2 (ICAM2)
[4] = Gene No. 15994, beta-2-microglobulin (B2M)
[5] = Gene No. 16478, tumor necrosis factor (ligand) superfamily, member 12 (TNFSF12), transcript variant 1, mRNA
[6] = Gene No. 16756, major histocompatibility complex, class I, E (HLA-E)
[7] = Gene No. 17177, tumor necrosis factor superfamily, member 5-induced protein 1 (TNFSF5IP1)
[8] = Gene No. 18139, major histocompatibility complex, class II, DQ alpha 1 (HLA-DQA1)
[9] = Gene No. 18884, (clone 38-1) MHC class I mRNA fragment.
[10] = Gene No. 20551, IL2-inducible T-cell kinase (ITK)
[11] = Gene No. 20881, natural killer cell transcript 4 (NK4)
[12] = Gene No. 21487, programmed cell death 2 (PDCD2), transcript variant 1
[13] = Gene No. 22326, immune associated nucleotide 2 (hIAN2)
[14] = Gene No. 22789, CASP8 and FADD-like apoptosis regulator (CFLAR)
[15] = Gene No. 22868, lymphocyte cytosolic protein 2 (SH2 domain containing leukocyte protein of 76 kDa) (LCP2)
[16] = Gene No. 22890, NK inhibitory receptor precursor (NKIR)
[17] = Gene No. 23827, major histocompatibility complex, class II, DM alpha (HLA-DMA)
[18] = Gene No. 24440, THYMUS cDNA clone CS0CAP007YL06 5-PRIME
[19] = Gene No. 24969, CD69 antigen (p60, early T-cell activation antigen) (CD69)
[20] = Gene No. 34736, adhesion molecule AMICA (AMICA)
[21] = Gene No. 37068, immediate early response 2 (IER2)
[22] = Gene No. 37445, mal, T-cell differentiation protein (MAL), transcript variant d
[23] = Gene No. 37834, proteasome (prosome, macropain) 26S subunit, non-ATPase, 1 (PSMD1)
[24] = Gene No. 38103, tumor necrosis factor receptor superfamily, member 7 (TNFRSF7)
[25] = Gene No. 38879, interferon stimulated gene 20 kDa (ISG20)
[26] = Gene No. 39926, thymosin-like 6 (TMSL6)
[27] = Gene No. 39991, lymphotoxin beta (TNF superfamily, member 3) (LTB), transcript variant 2
[28] = Gene No. 40727, linker for activation of T cells (LAT)
[29] = Gene No. 41726, apoptosis-associated speck-like protein containing a CARD (ASC), transcript variant 1
[30] = Gene No. 41803, programmed cell death 2 (PDCD2), transcript variant 2
[31] = Gene No. 41817, major histocompatibility complex, class I, F (HLA-F)
[32] = Gene No. 42474, programmed cell death 6 (PDCD6)
[33] = Gene No. 42573, T-cell activation protein (PGR1)
[34] = Gene No. 42614, killer cell lectin-like receptor subfamily K, member 1 (KLRK1)
[35] = Gene No. 42661, proteasome (prosome, macropain) subunit, beta type, 9 (large multifunctional protease 2) (PSMB9), transcript variant 1
[36] = Gene No. 42680, proteasome (prosome, macropain) 26S subunit, ATPase, 4 (PSMC4), transcript variant 1
[37] = Gene No. 42813, granzyme A (granzyme 1, cytotoxic T-lymphocyte-associated serine esterase 3) (GZMA)
[38] = Gene No. 43032, interferon, gamma-inducible protein 16 (IFI16)
[39] = Gene No. 45767, HLA-B associated transcript 1 (BAT1), transcript variant 1
[40] = Gene No. 46186, cell death-regulatory protein GRIM19 (GRIM19)
[41] = Gene No. 47689, killer cell lectin-like receptor subfamily B, member 1 (KLRB1)
[42] = Gene No. 47973, CD8 antigen, beta polypeptide 1 (p37) (CD8B1), transcript variant 5
[43] = Gene No. 49170, interferon gamma receptor 2 (interferon gamma transducer 1) (IFNGR2)
[44] = Gene No. 49586, interleukin-1 receptor-associated kinase 4 (IRAK4)
[45] = Gene No. 49622, intercellular adhesion molecule 3 (ICAM3)
[46] = Gene No. 51004, tumor necrosis factor (ligand) superfamily, member 10 (TNFSF10)
[47] = Gene No. 52071, interferon (alpha, beta and omega) receptor 1 (IFNAR1)
[48] = Gene No. 52342, apoptosis-related protein PNAS-1 (FLJ39616)
[49] = Gene No. 52539, major histocompatibility complex, class II, DR alpha (HLA-DRA)
[50] = Gene No. 53172, transforming growth factor, beta 1 (Camurati-Engelmann disease) (TGFB1)

the Peptide (QPQFGRRMESK; Human squamous cell carcinoma)
Suppression Ratio (Gene No. 11651, implantation-associated protein (DKFZp564K142)): 89.16
Expression Amount after Treatment with the Peptide [1]: 24.53
Suppression Ratio [1]: 47.97
Expression Amount after Treatment with the Peptide [2]: 25.27
Suppression Ratio [2]: 40.37
Expression Amount after Treatment with the Peptide [3]: 6.364
Suppression Ratio [3]: 143.4
Expression Amount after Treatment with the Peptide [4]: 239.5
Suppression Ratio [4]: 47.59
Expression Amount after Treatment with the Peptide [5]: 6.018
Suppression Ratio [5]: 110.2
Expression Amount after Treatment with the Peptide [6]: 2.806
Suppression Ratio [6]: 140.8
Expression Amount after Treatment with the Peptide [7]: 26.16
Suppression Ratio [7]: 39.51
Expression Amount after Treatment with the Peptide [8]: 33.12
Suppression Ratio [8]: 80.32
Expression Amount after Treatment with the Peptide [9]: 3.387
Suppression Ratio [9]: 100.2
Expression Amount after Treatment with the Peptide [10]: 22.93
Suppression Ratio [10]: 122.6
Expression Amount after Treatment with the Peptide [11]: 38.17
Suppression Ratio [11]: 172.9
Expression Amount after Treatment with the Peptide [12]: 9.909
Suppression Ratio [12]: 39.12
Expression Amount after Treatment with the Peptide [13]: 9.743
Suppression Ratio [13]: 113.2
Expression Amount after Treatment with the Peptide [14]: 9.725
Suppression Ratio [14]: 75.25
Expression Amount after Treatment with the Peptide [15]: 6.525
Suppression Ratio [15]: 82.73
Expression Amount after Treatment with the Peptide [16]: 9.902
Suppression Ratio [16]: 112.4
Expression Amount after Treatment with the Peptide [17]: 29.78
Suppression Ratio [17]: 80.72
Expression Amount after Treatment with the Peptide [18]: 0.2348
Suppression Ratio [18]: 59.63
Expression Amount after Treatment with the Peptide [19]: 25.71
Suppression Ratio [19]: 95.14
Expression Amount after Treatment with the Peptide [20]: 29.08
Suppression Ratio [20]: 136.7
Expression Amount after Treatment with the Peptide [21]: 57.38
Suppression Ratio [21]: 121.3
Expression Amount after Treatment with the Peptide [22]: 14.875
Suppression Ratio [22]: 112.4
Expression Amount after Treatment with the Peptide [23]: 14.11
Suppression Ratio [23]: 38.69
Expression Amount after Treatment with the Peptide [24]: 5.778
Suppression Ratio [24]: 121.8
Expression Amount after Treatment with the Peptide [25]: 31.94
Suppression Ratio [25]: 91.84
Expression Amount after Treatment with the Peptide [26]: 317.7
Suppression Ratio [26]: 54.8
Expression Amount after Treatment with the Peptide [27]: 17.77
Suppression Ratio [27]: 135.9
Expression Amount after Treatment with the Peptide [28]: 28.17
Suppression Ratio [28]: 42.75
Expression Amount after Treatment with the Peptide [29]: 33.51
Suppression Ratio [29]: 134.7
Expression Amount after Treatment with the Peptide [30]: 0.82
Suppression Ratio [30]: 108.8
Expression Amount after Treatment with the Peptide [31]: 98.43
Suppression Ratio [31]: 107.9
Expression Amount after Treatment with the Peptide [32]: 17.04
Suppression Ratio [32]: 68.35
Expression Amount after Treatment with the Peptide [33]: 15.75
Suppression Ratio [33]: 60.53
Expression Amount after Treatment with the Peptide [34]: 4.848
Suppression Ratio [34]: 129.2
Expression Amount after Treatment with the Peptide [35]: 39.14
Suppression Ratio [35]: 38.48
Expression Amount after Treatment with the Peptide [36]: 42.03
Suppression Ratio [36]: 38.46
Expression Amount after Treatment with the Peptide [37]: 38.51
Suppression Ratio [37]: 115.5
Expression Amount after Treatment with the Peptide [38]: 4.446
Suppression Ratio [38]: 116.8
Expression Amount after Treatment with the Peptide [39]: 18.125
Suppression Ratio [39]: 130.2
Expression Amount after Treatment with the Peptide [40]: 25.55
Suppression Ratio [40]: 55.07
Expression Amount after Treatment with the Peptide [41]: 72.08
Suppression Ratio [41]: 52.77
Expression Amount after Treatment with the Peptide [42]: 9.639
Suppression Ratio [42]: 153.6
Expression Amount after Treatment with the Peptide [43]: 10.09
Suppression Ratio [43]: 70.7
Expression Amount after Treatment with the Peptide [44]: 2.716
Suppression Ratio [44]: 91.49
Expression Amount after Treatment with the Peptide [45]: 39.68
Suppression Ratio [45]: 86.23
Expression Amount after Treatment with the Peptide [46]: 8.725
Suppression Ratio [46]: 39.65
Expression Amount after Treatment with the Peptide [47]: 9.429
Suppression Ratio [47]: 44.09
Expression Amount after Treatment with the Peptide [48]: 18.72
Suppression Ratio [48]: 64.11
Expression Amount after Treatment with the Peptide [49]: 158.7
Suppression Ratio [49]: 109.3
Expression Amount after Treatment with the Peptide [50]: 6.56
Suppression Ratio [50]: 88.02
